According to patent US20160052898A1, “NOVEL COMPOUNDS” (BAYER PHARMA AKTIENGESELLSCHAFT, priority 2013, published 2016):
Like-named read-outs stand apart in the source and are kept apart here.

Experiments:
[1] = system: constitutive active colorectal cancer cell (CRC) Wnt pathway; test: HCT116 Super TopFlash cellular reporter assay (constitutive active Wnt pathway); format: cell-based; details: HCT116 TOP reporter cells, luciferase expression, 36 hours incubation, 50 μM to 15 nM
Method: In order to discover and characterize small molecules which inhibit the constitutive active colorectal cancer cell (CRC) Wnt pathway, a cellular reporter assay was employed. The corresponding assay cell was generated by transfection of the colorectal cancer cell line HCT116 (ATCC, #CCL-247) with the Super TopFlash vector (Morin, Science 275, 1997, 1787-1790; Molenaar et al., Cell 86 (3), 1996, 391-399). The HCT116 cell line is cultivated at 37° C. and 5% CO2 in DMEM/F-12 (Life Technologies, #11320-074), supplemented with 2 mM glutamine, 20 mM HEPES, 1.4 mM pyruvate, 0.15% Na-bicarbonate and 10% foetal bovine serum (GIBCO, #10270), this cancer cell line is pathophysiological relevant since it carries a deletion of position S45 in the β-catenin gene, leading to constitutive active Wnt signaling. Stable transfectants were generated by cotransfection with pcDNA3 and selection of stable transfected cells with 1 mg/ml G418.
(§1) In a parallel approach, HCT116 cells were cotransfected with the FOP control vector and pcDNA3. The FOP vector is identical to the TOP construct, but it contains instead of functional TCF elements a randomized, non-functional sequence. For this transfection a stable transfected cell line was generated as well.
(§2) In preparation of the assay, the two cell lines were plated 24 hrs before at 10000 cells per well of a 384 micro titre plate (MTP) in 30 μL growth medium. Selective inhibitory activity for small molecules on the mutated Wnt pathway was determined after parallel incubation of both (TOP and FOP) HCT116 reporter cell lines with a compound dilution series from 50 μM to 15 nM in steps of 3.16-fold dilutions in CAFTY buffer (130 mM NaCl, 5 mM KCl, 20 mM HEPES, 1 mM MgCl2, 5 mM NaHCO3, pH 7.4) containing 2 mM Ca^2+ and 0.01% BSA. The compounds were thereby serially prediluted in 100% DMSO and thereafter in addition 50 fold into the CAFTY compound dilution buffer (described above). From this dilution 10 μL were added to the cells in 30 μL growth medium and incubated for 36 hours at 37° C. and 5% CO2. Thereafter luciferase assay buffer (1:1 mixture of luciferase substrate buffer (20 mM Tricine, 2.67 mM MgSO4, 0.1 mM EDTA, 4 mM DTT, 270 μM Coenzyme A, 470 μM Luciferin, 530 μM ATP, ph adjusted to pH 7.8 with a sufficient volume of 5M NaOH) and Triton buffer (30 mL Triton X-100, 115 mL glycerol, 308 mg Dithiothreitol, 4.45 g Na2HPO4.2 H2O, 3.03 g Tris.HCL, ad 1 l H20, pH 7.8) was added as equal volume to the compound solution on the cells to determine luciferase expression as a measure of Wnt signaling activity in a luminometer.

[2] = system: HCT116 FOP control reporter cell line; test: HCT116 FOP control vector reporter assay (non-functional TCF elements); format: cell-based; details: HCT116 FOP control reporter cells, luciferase expression, 36 hours incubation, 50 μM to 15 nM, read-out: HCT116 FOPFlash IC50
Method: as §1, §2

In the case of `CC(C(=O)Nc1cc(NC(=O)c2ccc(-c3ccccc3)cc2)ccc1C(F)(F)F)N1CCOCC1` (single isomer, unassigned) [Example 180, N-(3-{[(2S*)-2-(morpholin-4-yl)propanoyl]amino}-4-(trifluoromethyl)phenyl] biphenyl-4-carboxamide], the IC50 [1] is reported as 0.301 µM and the IC50 [2] is reported as no less than 50 µM.

In the case of `CC(C(=O)Nc1cc(NC(=O)c2ccc(-c3ccccc3)cc2)ccc1C(F)(F)F)N1CC2CCC(C1)O2` (single isomer, unassigned) [Example 182, N-[3-{[(2R*)-2-(8-oxa-3-azabicyclo[3.2.1]oct-3-yl)propanoyl]amino}-4-(trifluoromethyl)phenyl] biphenyl-4-carboxamide], the IC50 [1] is reported as 0.311 µM and the IC50 ([2]; Homo sapiens, HCT-116, 36 h) is reported as no less than 50 µM.

With `O=C(Cn1cccn1)Nc1cc(C(=O)Nc2ccc(-c3ccccc3)cc2)ccc1C(F)(F)F` [Example 3, N-(biphenyl-4-yl)-3-[(1H-pyrazol-1-ylacetyl)amino]-4-(trifluoromethyl)benzamide] the IC50 ([1]; Homo sapiens, HCT-116, 36 h) was 0.43 µM and the IC50 ([2]; Homo sapiens, HCT-116, 36 h) was no less than 50 µM.

Work on `COc1cc(Cl)c(C(=O)Nc2ccc(-c3ccccc3)cc2)cc1NC(=O)C(C)N1CCOCC1` (stereo not shown) [Example 5, N-(biphenyl-4-yl)-2-chloro-4-methoxy-5-{[2-(morpholin-4-yl)propanoyl]amino}benzamide] yielded an IC50 ([1]; Homo sapiens, HCT-116, 36 h) of 0.507 µM and an IC50 ([2]; Homo sapiens, HCT-116, 36 h) of no less than 50 µM.

With `COc1cc(Cl)c(C(=O)Nc2ccc(-c3ccccc3)cc2)cc1NC(=O)CN1CCOCC1` [Example 6, N-(biphenyl-4-yl)-2-chloro-4-methoxy-5-[(morpholin-4-ylacetyl)amino]benzamide] the IC50 ([1]; Homo sapiens, HCT-116, 36 h) was 3.92 µM and the IC50 ([2]; Homo sapiens, HCT-116, 36 h) was no less than 50 µM.

For `O=C(CN1CC2CCC(C1)O2)Nc1cc(C(=O)Nc2ccc(-c3ccccc3)cc2)ccc1C(F)(F)F` [Example 10, N-(biphenyl-4-yl)-3-[(8-oxa-3-azabicyclo[3.2.1]oct-3-ylacetyl)amino]-4-(trifluoromethyl)benzamide], the IC50 ([1]; Homo sapiens, HCT-116, 36 h) was 0.17 µM and the IC50 ([2]; Homo sapiens, HCT-116, 36 h) was no less than 50 µM.

`O=C(CN1C[C@@H]2C[C@H]1CO2)Nc1cc(C(=O)Nc2ccc(-c3ccccc3)cc2)ccc1C(F)(F)F` [Example 11, N-(biphenyl-4-yl)-3-{[(1S,4S)-2-oxa-5-azabicyclo[2.2.1]hept-5-ylacetyl]amino}-4-(trifluoromethyl)benzamide] showed an IC50 ([1]; Homo sapiens, HCT-116, 36 h) of 0.533 µM and an IC50 ([2]; Homo sapiens, HCT-116, 36 h) of no less than 50 µM.

`O=C(CN1CCOCC1)Nc1cc(C(=O)Nc2ccc(-c3ccccc3)cc2)ccc1-c1cccs1` [Example 19, N-(biphenyl-4-yl)-3-[(morpholin-4-ylacetyl)amino]-4-(2-thienyl)benzamide] was tested, and the IC50 ([1]; Homo sapiens, HCT-116, 36 h) was 0.136 µM and the IC50 ([2]; Homo sapiens, HCT-116, 36 h) was no less than 50 µM.

Compound `CN(C)C(=O)c1ccc(C(=O)Nc2ccc(-c3ccccc3)cc2)cc1NC(=O)CN1CCOCC1` [Example 21, N^4-(biphenyl-4-yl)-N^1,N^1-dimethyl-2-[(morpholin-4-ylacetyl)amino]terephthalamide] has an IC50 ([1]; Homo sapiens, HCT-116, 36 h) of 0.334 µM and an IC50 ([2]; Homo sapiens, HCT-116, 36 h) of 16.5 µM.

In the case of `O=C(CN1CCOCC1)Nc1cc(C(=O)Nc2ccc(-c3ccccc3)cc2)ccc1OCc1ccccc1` [Example 24, 4-(benzyloxy)-N-(biphenyl-4-yl)-3-[(morpholin-4-ylacetyl)amino]benzamide], the IC50 ([1]; Homo sapiens, HCT-116, 36 h) is reported as 0.36 µM and the IC50 ([2]; Homo sapiens, HCT-116, 36 h) is reported as no less than 50 µM.

Compound `O=C(CN1CCOCC1)Nc1cc(NC(=O)c2ccc(-c3ccccc3)cc2)ccc1F` [Example 29, N-{4-fluoro-3-[(morpholin-4-ylacetyl)amino]phenyl}biphenyl-4-carboxamide] has an IC50 ([1]; Homo sapiens, HCT-116, 36 h) of 2.15 µM and an IC50 ([2]; Homo sapiens, HCT-116, 36 h) of no less than 50 µM.

Work on `C[C@H](C(=O)Nc1cc(NC(=O)c2ccc(-c3ccccc3)cc2)ccc1F)N1CCOCC1` [Example 31, N-(4-fluoro-3-{[(2R)-2-(morpholin-4-yl)propanoyl]amino}phenyl)biphenyl-4-carboxamide] yielded an IC50 ([1]; Homo sapiens, HCT-116, 36 h) of 3.83 µM and an IC50 ([2]; Homo sapiens, HCT-116, 36 h) of no less than 50 µM.

For `COc1ccc(NC(=O)c2ccc(-c3ccccc3)cc2)cc1NC(=O)CN1CCO[C@@H](CO)C1` [Example 34, N-[3-({[(2R)-2-(hydroxymethyl)morpholin-4-yl]acetyl}amino)-4-methoxyphenyl]biphenyl-4-carboxamide], the IC50 ([1]; Homo sapiens, HCT-116, 36 h) was 1.06 µM and the IC50 ([2]; Homo sapiens, HCT-116, 36 h) was no less than 50 µM.

With `COc1ccc(NC(=O)c2ccc(-c3ccccc3)cc2)cc1NC(=O)CN1CCCC(OC)C1` (stereo not shown) [Example 38, N-(4-methoxy-3-{[(3-methoxypiperidin-1-yl)acetyl]amino}phenyl)biphenyl-4-carboxamide] the IC50 ([1]; Homo sapiens, HCT-116, 36 h) was 2 µM and the IC50 ([2]; Homo sapiens, HCT-116, 36 h) was no less than 50 µM.

`COCCNCC(=O)Nc1cc(NC(=O)c2ccc(-c3ccccc3)cc2)ccc1OC` [Example 42, N-(4-methoxy-3-{[N-(2-methoxyethyl)glycyl]amino}phenyl)biphenyl-4-carboxamide] showed an IC50 ([1]; Homo sapiens, HCT-116, 36 h) of 1.11 µM and an IC50 ([2]; Homo sapiens, HCT-116, 36 h) of no less than 50 µM.

Work on `COc1ccc(NC(=O)c2ccc(-c3ccccc3)cc2)cc1NC(=O)CN1CCOC[C@H]1CCO` [Example 44, N-[3-({[(3R)-3-(2-hydroxyethyl)morpholin-4-yl]acetyl}amino)-4-methoxyphenyl]biphenyl-4-carboxamide] yielded an IC50 ([1]; Homo sapiens, HCT-116, 36 h) of 2.9 µM and an IC50 ([2]; Homo sapiens, HCT-116, 36 h) of no less than 50 µM.

`COc1ccc(NC(=O)c2ccc(-c3ccccc3)cc2)cc1NC(=O)CN1CCC(O)CC1` [Example 45, N-(3-{[(4-hydroxypiperidin-1-yl)acetyl]amino}-4-methoxyphenyl)biphenyl-4-carboxamide] was tested, and the IC50 ([1]; Homo sapiens, HCT-116, 36 h) was 3.85 µM and the IC50 ([2]; Homo sapiens, HCT-116, 36 h) was no less than 50 µM.

`COc1ccc(NC(=O)c2ccc(-c3ccccc3)cc2)cc1NC(=O)CN1CCC2(CCO2)C1` (stereo not shown) [Example 46, N-{4-methoxy-3-[(1-oxa-6-azaspiro[3.4]oct-6-ylacetyl)amino]phenyl}biphenyl-4-carboxamide] gave an IC50 ([1]; Homo sapiens, HCT-116, 36 h) of 3.45 µM and an IC50 ([2]; Homo sapiens, HCT-116, 36 h) of no less than 50 µM.

Compound `COc1ccc(NC(=O)c2ccc(-c3ccccc3)cc2)cc1NC(=O)CN1CCN(C)CC1` [Example 47, N-(4-methoxy-3-{[(4-methylpiperazin-1-yl)acetyl]amino}phenyl)biphenyl-4-carboxamide] has an IC50 ([1]; Homo sapiens, HCT-116, 36 h) of 0.718 µM and an IC50 ([2]; Homo sapiens, HCT-116, 36 h) of 33.5 µM.

In the case of `COCCN(C)CC(=O)Nc1cc(NC(=O)c2ccc(-c3ccccc3)cc2)ccc1OC` [Example 49, N-(4-methoxy-3-{[N-(2-methoxyethyl)-N-methylglycyl]amino}phenyl)biphenyl-4-carboxamide], the IC50 ([1]; Homo sapiens, HCT-116, 36 h) is reported as 2.65 µM and the IC50 ([2]; Homo sapiens, HCT-116, 36 h) is reported as no less than 50 µM.

Work on `CCN1CCN(CC(=O)Nc2cc(NC(=O)c3ccc(-c4ccccc4)cc3)ccc2OC)CC1` [Example 50, N-(3-{[(4-ethylpiperazin-1-yl)acetyl]amino}-4-methoxyphenyl)biphenyl-4-carboxamide] yielded an IC50 ([1]; Homo sapiens, HCT-116, 36 h) of 3.64 µM and an IC50 ([2]; Homo sapiens, HCT-116, 36 h) of 23 µM.

`COc1ccc(NC(=O)c2ccc(-c3ccccc3)cc2)cc1NC(=O)CN1CCN(S(C)(=O)=O)CC1` [Example 51, N-[4-methoxy-3-({[4-(methylsulfonyl)piperazin-1-yl]acetyl}amino)phenyl]biphenyl-4-carboxamide] was tested, and the IC50 ([1]; Homo sapiens, HCT-116, 36 h) was 3.18 µM and the IC50 ([2]; Homo sapiens, HCT-116, 36 h) was no less than 50 µM.

Compound `COc1ccc(NC(=O)c2ccc(-c3ccccc3)cc2)cc1NC(=O)CN1CCOCC1` [Example 52, N-{4-methoxy-3-[(morpholin-4-ylacetyl)amino]phenyl}biphenyl-4-carboxamide] has an IC50 ([1]; Homo sapiens, HCT-116, 36 h) of 0.47 µM and an IC50 ([2]; Homo sapiens, HCT-116, 36 h) of no less than 50 µM.

With `COc1ccc(NC(=O)c2ccc(-c3ccccc3)cc2)cc1NC(=O)[C@H](C)N1CCOCC1` [Example 54, N-(4-methoxy-3-{[(2S)-2-(morpholin-4-yl)propanoyl]amino}phenyl)biphenyl-4-carboxamide] the IC50 ([1]; Homo sapiens, HCT-116, 36 h) was 0.35 µM and the IC50 ([2]; Homo sapiens, HCT-116, 36 h) was no less than 50 µM.

Compound `COc1ccc(NC(=O)c2ccc(-c3ccccc3)cc2)cc1NC(=O)[C@@H](C)N1CCOCC1` [Example 55, N-(4-methoxy-3-{[(2R)-2-(morpholin-4-yl)propanoyl]amino}phenyl)biphenyl-4-carboxamide] has an IC50 ([1]; Homo sapiens, HCT-116, 36 h) of 0.834 µM and an IC50 ([2]; Homo sapiens, HCT-116, 36 h) of no less than 50 µM.

`COc1ccc(NC(=O)c2ccc(-c3ccccc3)cc2)cc1NC(=O)[C@@H](C)N1CC2CCC(C1)O2` [Example 57, N-(4-methoxy-3-{[(2R)-2-(8-oxa-3-azabicyclo[3.2.1]oct-3-yl)propanoyl]amino}phenyl)biphenyl-4-carboxamide] was tested, and the IC50 ([1]; Homo sapiens, HCT-116, 36 h) was 0.49 µM and the IC50 ([2]; Homo sapiens, HCT-116, 36 h) was no less than 50 µM.
